Reference: patent US7906484B2, “Complex for transferring an anionic substance into a cell” (Alnylam Pharmaceuticals, Inc., priority 2006, dated 2011)

Tests used:
[1] = tested on: ENaC-alpha mRNA in H441 cells; assay: siRNA delivery into H441 cells, ENaC-alpha mRNA quantified by bDNA assay; type: cell-based, human; settings: AD-7007
Method: In order to test the potential of adding Histidine residues for improving the cross-membrane transport properties of peptides, we synthesized a modified ppTG20, termed ppTGHis herein, wherein 4 consecutive Histidine moieties were added to the C-terminus of ppTG20. We then compared the transport of siRNAs complexed with ppTG20 or ppTGHis into H441 cells, as evaluated by the ability of siRNAs to inhibit the expression of a gene constitutively expressed in H441 cells, ENaC-alpha. […]
For transfection with peptide/siRNA complexes, H441 cells were seeded at 1.5×10^4 cells/well on 96-well plates (Greiner Bio-One GmbH, Frickenhausen, Germany) in 75 μl of growth medium. […] Thereafter, the cells were lysed by adding 50 μl of lysis mixture (content of the QuantiGene bDNA-kit from Panomics, Inc., Fremont, USA) to each well containing 100 μl of growth medium at 53° C. for 30 min, and ENaC mRNA levels were subsequently quantified with the Quantigene Explore Kit (Panomics, Inc., Dumbarton Circle Fremont, USA, cat. No. QG-000-02) according to the manufacturer's protocol. Finally, chemoluminescence was measured in a Victor2-Light (Perkin Elmer, Wiesbaden, Germany) as RLUs (relative light units) and values obtained with the hENaC probeset were normalized to the respective GAPDH values for each well (probe sequences shown in Table 2 and Table 3). […]

[2] = tested on: E6AP mRNA in HCT116 cells; assay: siRNA AD-8724 delivery into HCT116 cells, inhibition of E6AP mRNA expression by bDNA assay; type: cell-based, human; settings: for capacity for cross membrane transport of siRNA (quantity not given): 37° C., siRNA/peptide conc. 250 nM/2.5 μM
Method: All further experiments were carried out using HCT116 cells and inhibition of E6AP expression as readout.
HCT116-cells were obtained from the American Type Culture Collection (ATCC# CCL-247). They were cultured in McCoy's 5A medium (Biochrom AG, Berlin, Germany, Cat.# F1015) containing 10% fetal calf serum (FCS; Biochrom AG, Berlin, Germany, Cat.# S0115) and 2 mM L-Glutamin (Biochrom AG, Berlin, Germany, Cat.#: K0283) (standard growth medium). For incubation with peptide/siRNA, complexes, the medium was replaced by serum-free McCoy's 5A medium containing 2 mM L-Glutamin (serum free medium). After incubation with complexes for 4 h, McCoy's 5A medium containing 30% fetal calf serum and 2 mM L-Glutamin (triple FCS medium) was added to restore an overall 10% FCS in the medium.
The E6AP-specific siRNA denoted AD-8724 herein was used, having the following sequences: antisense strand: 5′-ucacauuccacguuaggugTsT-3′ (SEQ ID NO:51), sense strand 5′-caccuaacguggaaugugaTsT-3′; (SEQ ID NO:52; lower case letters: ribonucleotides; s: phosphorothioate backbone linkage). As a negative control, an siRNA specific for eGFP, denoted AD-5107 herein, was used, having the following sequences: antisense strand: 5′-aagucgugcugcuucauguggOMesuOMesc-3′ (SEQ ID NO:19), sense strand 5′-[…]-3′ (SEQ ID NO:18; lower case letters: ribonucleotides; subscript OMe: 2′-O-methyl-ribonucleotide; s: phosphorothioate backbone linkage). In addition to the non-specific control siRNA AD-5107, mock transfected cells treated with standard growth medium only were used as negative controls. As a positive control, AD-8724 was transfected into the cells using Lipofectamine2000™ (Invitrogen, Karlsruhe, Germany, Cat. No. 11668-019). As a further control, AD-5107 was transfected into cells using Lipofectamine2000™. All assays were performed in quadruplicates.
SiRNA/peptide complexes were prepared by mixing a solution of the siRNA in deionized water with a solution of the peptide in deionized water at the appropriate concentrations to give the desired ratio of siRNA/peptide at the desired concentration of the complex. The mixture was incubated at room temperature for 30 min and kept at 4° C. until use, and used within 24 h.
For transfections with siRNA/peptide complexes, 1.5×10^5 HCT116-cells per well in 150 μl standard growth medium were seeded into polystyrene 96 well plates and grown for 24 h at 37° C. in an atmosphere containing 5% CO2. The medium was removed by aspiration, and 90 μl serum-free medium and 10 μl of siRNA/peptide complex solution were added. Cells were incubated for 4 h at 37° C./5% CO2, 50 μl triple FCS medium were added, and the cells incubated for another 20 h under identical conditions. Subsequently, E6AP mRNA content was determined as described below.
For Lipofectamine2000™ transfections, 0.5 μl Lipofectamine2000™ were mixed with 12 μl OptiMem™ (Invitrogen, Karlsruhe, Germany, Cat. No. 11058-021) and incubated for 15 min. 1 μl of a 5 μM solution of the respective siRNA in PBS (Biochrom AG, Berlin, Germany, Cat-No: L182-05) were added to 11.5 μl OptiMeM™, mixed with the Lipofectamine2000™/OptiMem™ solution, and incubated for further 15 min. 1.5×10^5 HCT116-cells per well in 150 μl standard growth medium were grown for 24 h as described above, the growth medium removed from the cells by aspiration, and 75 μl fresh standard growth medium and the 25 μl of the siRNA/Lipofectamine2000™ mix were added to the well, to give a final siRNA concentration of 50 nM. The cells were incubated for 24 h at 37° C./5% CO2 and E6AP mRNA concentration determined.
The QuantiGene™ bDNA-kit from Panomics, Inc., Fremont, USA, was used according to manufacturer's instructions. Briefly, cells were lysed by adding 50 μl of Lysis Mixture (from QuantiGene bDNA-kit) to each well and incubation at 53° C. for 1 h. […]

[3] = tested on: eGFP-mRNA; assay: Influence of peptide/siRNA ratio on siRNA activity in HCT116 cells; type: cell-based; settings: 250 nM siRNA
Method: The optimal ratio of (peptide):(anionic substance) for complex formation, was determined in section 3 above to lie in the range of 8:1 to 13:1 by titrating a fixed concentration of the anionic substance with increasing amounts of the peptide, and monitoring complex formation by electrophoresis of the mixture. To further validate and possibly narrow down the optimum ratio of peptide/anionic substance, an assay with a functional readout was performed. HCT116 cells were incubated with siRNA complexes as described above at concentrations such that the amount of siRNA in the incubation mixture corresponds to a 250 nM concentration of the siRNA, and the peptide/siRNA ratio was 8:1, 10:1, 12:1, or 14:1.

[4] = tested on: E6AP mRNA in HCT116 cells; assay: siRNA AD-8724 delivery into HCT116 cells, inhibition of E6AP mRNA expression by bDNA assay; type: cell-based, human; settings: 4° C., siRNA/peptide conc. 250 nM/2.5 μM
[5] = AD-8724, siRNA/peptide conc. 25 nM/250 nM
[6] = AD-8724, siRNA/peptide conc. 250 nM/2.5 μM
[7] = AD-8724, siRNA/peptide conc. 1 μM/10 μM
[8] = siRNA AD-8724 250 nM, molar peptide/siRNA ratio 12.5:1

| Sequence | transfection efficiency and resulting siRNA activity compared with Lipofectamine [1] | transfection efficiency and resulting siRNA activity relative to ppTG20 [1] | capacity for cross membrane transport of siRNA (quantity not given) [2] | remaining E6AP mRNA (in % of mock) [2, 5] [%] | remaining E6AP mRNA (in % of mock) [2, 6] [%] | remaining E6AP mRNA (in % of mock) [2, 7] [%] | remaining E6AP mRNA (in % of mock) [2, 8] [%] | Remaining eGFP-mRNA in % of mock-transfected controls ([3]; peptide/siRNA ratio 8:1) [%] | Remaining eGFP-mRNA in % of mock-transfected controls ([3]; peptide/siRNA ratio 10:1) [%] | Remaining eGFP-mRNA in % of mock-transfected controls ([3]; peptide/siRNA ratio 12:1) [%] | Remaining eGFP-mRNA in % of mock-transfected controls ([3]; peptide/siRNA ratio 14:1) [%] | capacity for cross membrane transport of siRNA (quantity not given) [4] [%] |
| --- | --- | --- | --- | --- | --- | --- | --- | --- | --- | --- | --- | --- |
| GLFRALLRLLRSLWRLLLRAHHHH [ppTGHis, ppTG20 with 4 histidines added to the C-terminus] | comparable to that of Lipofectamine™ | approximately 10 fold | – | – | – | – | – | – | – | – | – | – |
| HLFRALLRLLRHLWRLLLRA [AP-10] | – | – | 13 ± 8% | 98 ± 8 | 28 ± 4 | 17 ± 1 | 41 ± 21 | 42 ± 3 | 24 ± 4 | 24 ± 2 | 32 ± 4 | 81 ± 16 |
| RLFRALLRLLRSLWRLLRRA [AP-4] | – | – | 30 ± 5% RT | 96 ± 24 | 49 ± 11 | 37 ± 9 | 34 ± 6 | 23 ± 6 | 18 ± 6 | 52 ± 6 | 43 ± 4 | 56 ± 4 |
